Drawing on ChEMBL document CHEMBL5375948, “Development and Pharmacochemical Characterization Discover a Novel Brain-Permeable HDAC11-Selective Inhibitor with Therapeutic Potential by Regulating Neuroinflammation in Mice” (J Med Chem, 2023), this text covers IC50 for 1 compound.

Structures are written as SMILES. pIC50: −log10 of the molar value.

For assay [1], the target named is T1, Polyamine deacetylase HDAC10 (Homo sapiens, UniProt Q969S8).
T1 sequence (Q969S8 whole entry): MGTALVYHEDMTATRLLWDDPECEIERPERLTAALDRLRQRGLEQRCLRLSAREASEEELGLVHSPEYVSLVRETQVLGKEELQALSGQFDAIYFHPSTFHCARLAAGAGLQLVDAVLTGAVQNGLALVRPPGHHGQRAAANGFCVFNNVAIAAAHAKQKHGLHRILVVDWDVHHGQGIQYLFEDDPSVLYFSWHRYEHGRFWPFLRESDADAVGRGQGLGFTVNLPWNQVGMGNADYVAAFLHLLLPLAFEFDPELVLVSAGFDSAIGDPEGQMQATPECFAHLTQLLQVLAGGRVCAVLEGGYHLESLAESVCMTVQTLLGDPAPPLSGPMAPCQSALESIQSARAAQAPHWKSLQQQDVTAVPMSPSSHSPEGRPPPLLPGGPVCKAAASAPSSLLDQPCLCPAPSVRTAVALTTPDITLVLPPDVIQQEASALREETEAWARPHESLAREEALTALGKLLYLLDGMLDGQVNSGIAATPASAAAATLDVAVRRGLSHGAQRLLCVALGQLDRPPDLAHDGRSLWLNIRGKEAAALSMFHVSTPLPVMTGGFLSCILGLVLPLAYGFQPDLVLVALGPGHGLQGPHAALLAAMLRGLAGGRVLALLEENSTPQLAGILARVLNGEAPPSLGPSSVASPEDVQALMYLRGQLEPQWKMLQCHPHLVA
Description: Inhibition of recombinant full-length human HDAC10 using FITC-H3K27(Ac)-NH2 as substrate by electrophoretic mobility shift assay.

The next assay addresses T2, Histone deacetylase 11 (Homo sapiens, UniProt Q96DB2).
T2 sequence (Q96DB2 whole entry): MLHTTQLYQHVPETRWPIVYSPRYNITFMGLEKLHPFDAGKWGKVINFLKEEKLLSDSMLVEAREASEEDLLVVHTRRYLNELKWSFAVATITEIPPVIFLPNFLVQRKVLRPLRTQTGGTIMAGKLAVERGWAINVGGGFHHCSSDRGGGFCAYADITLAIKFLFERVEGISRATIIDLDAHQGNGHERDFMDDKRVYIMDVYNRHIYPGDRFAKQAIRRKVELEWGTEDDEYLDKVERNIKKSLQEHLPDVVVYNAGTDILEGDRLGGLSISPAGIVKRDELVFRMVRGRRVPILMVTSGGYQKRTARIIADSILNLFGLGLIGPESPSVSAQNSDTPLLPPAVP
Description: Inhibition of recombinant full-length human HDAC11 using FAM-RHKK (trifluor-Ac)-NH2 as substrate by electrophoretic mobility shift assay.

For `O=C(NCC12C[C@H]3C[C@@H](C1)C[C@@H](C2)C3)c1ccc2c(ccn2Cc2ccc(C(=O)NO)c(Cl)c2)c1`, the pIC50 was 5.04 in assay [1] and 6.85 at Histone deacetylase 11.
